41 compounds from patent US12685312B2, “Sulfonamide apyrase inhibitors” (Texas Crop Science, Inc., priority 2022, dated 2026) can be followed below.

Molecules are shown by their SMILES.

In the test the test system is apyrase. Briefly: Screen for apyrase inhibitors (Method 1, in vitro phosphate-release absorbance assay). The class given is biochemical. Conditions: inhibitor conc at 1 mM stock, 1 hr room temperature, absorbance 630 nm; rounded average of two assay results. In a few lines: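 Phosphate-release colorimetric assay (Windsor method) in 60 mM Hepes, 3 mM MgCl2, 3 mM CaCl2, 3 mM ATP, pH 6.5, with compound or DMSO control added. Released phosphate developed with ammonium molybdate and ascorbic acid/TCA, then stopped with citrate/acetic acid.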
As to `COc1ccc(S(=O)(=O)N2CCc3ccccc32)cc1C(=O)Nc1cccc(C#N)c1` [I-442, N-(3-cyanophenyl)-5-(indolin-1-ylsulfonyl)-2-methoxybenzamide], the “% Inhibition of Apyrase” value amounted to 61%. As to `O=C(Nc1cccc(C(F)(F)F)c1)c1ccc(S(=O)(=O)Nc2ccccc2F)cc1` [I-407, 4-(N-(2-fluorophenyl)sulfamoyl)-N-(3-(trifluoromethyl)phenyl)benzamide], the “% Inhibition of Apyrase” value was determined as 30%. For the compound `COc1cc(OC)c(NS(=O)(=O)c2ccc(C)c(C(=O)N3CCc4ccccc43)c2)cc1Cl` [I-570, N-(5-chloro-2,4-dimethoxyphenyl)-3-(indoline-1-carbonyl)-4-methylbenzenesulfonamide], the “% Inhibition of Apyrase” value turned out to be 51%.

On to `O=C(Nc1cccc(S(=O)(=O)Nc2ccccc2F)c1)c1cccs1` [I-776, N-(3-(N-(2-fluorophenyl)sulfamoyl)phenyl)thiophene-2-carboxamide], for which the “% Inhibition of Apyrase” value is 1%. Turning to `CCOc1ccc(NS(=O)(=O)c2cccc(C(=O)N3CCCc4ccccc43)c2)cc1` [I-568, N-(4-ethoxyphenyl)-3-(1,2,3,4-tetrahydroquinoline-1-carbonyl)benzenesulfonamide], the “% Inhibition of Apyrase” value is listed as 51%.

Take `COc1cc(NC(=O)c2cccc(S(=O)(=O)Nc3ccc4c(c3)OCO4)c2)cc(OC)c1` [I-257, 3-(N-(benzo[d][1,3]dioxol-5-yl)sulfamoyl)-N-(3,5-dimethoxyphenyl)benzamide]: the “% Inhibition of Apyrase” value is given as 61%. With `COc1ccc(C(=O)N2c3ccccc3CC2C)cc1S(=O)(=O)Nc1ccc(C)cc1` (centres unmarked) [I-545, 2-methoxy-5-(2-methylindoline-1-carbonyl)-N-(p-tolyl)benzenesulfonamide], the “% Inhibition of Apyrase” value stood at 53%. Regarding `COc1ccc(NC(=O)c2ccc(S(=O)(=O)Nc3cccc(C(F)(F)F)c3)cc2)cc1OC` [I-403, N-(3,4-dimethoxyphenyl)-4-(N-(3-(trifluoromethyl)phenyl)sulfamoyl)benzamide], the “% Inhibition of Apyrase” value was determined as 38%.

Turning to `O=C(Nc1nnc(C2CC2)s1)c1cccc(NS(=O)(=O)c2ccccc2)c1` [I-652, N-(5-cyclopropyl-1,3,4-thiadiazol-2-yl)-3-(phenylsulfonamido)benzamide], the “% Inhibition of Apyrase” value is 45%.

As to `O=C(Nc1cccc(S(=O)(=O)Nc2ccccc2Cl)c1)c1ccc(Cl)nc1` [I-746, 6-chloro-N-(3-(N-(2-chlorophenyl)sulfamoyl)phenyl)nicotinamide], the “% Inhibition of Apyrase” value was determined as 45%.

Regarding `O=C(c1ccc(S(=O)(=O)Nc2ccccc2)cc1)N1CCc2ccccc21` [I-860, 4-(indoline-1-carbonyl)-N-phenylbenzenesulfonamide], the “% Inhibition of Apyrase” value came to 71%. Regarding `Cc1ccc(NS(=O)(=O)c2cc(C(=O)Nc3cccc([N+](=O)[O-])c3)ccc2C)cc1C` [I-5, 3-(N-(3,4-dimethylphenyl)sulfamoyl)-4-methyl-N-(3-nitrophenyl)benzamide], the “% Inhibition of Apyrase” value is reported as 71%. To `O=C(Nc1ccc2c(c1)OCO2)c1ccc(C(=O)Nc2ccc3c(c2)OCO3)cc1` [I-876, N1,N4-bis(benzo[d][1,3]dioxol-5-yl)terephthalamide] belongs 54%. Regarding `CCN(C(=O)c1ccc(S(=O)(=O)N2CCCc3ccccc32)cc1)c1ccccc1` [I-885, 4-((3,4-dihydroquinolin-1(2H)-yl)sulfonyl)-N-ethyl-N-phenylbenzamide], the “% Inhibition of Apyrase” value is 47%. Next, `Cc1ccc(NC(=O)c2ccc(S(=O)(=O)Nc3ccc(Cl)cc3)cc2)cc1S(=O)(=O)N(C)C` [I-390, 4-(N-(4-chlorophenyl)sulfamoyl)-N-(3-(N,N-dimethylsulfamoyl)-4-methylphenyl)benzamide]: 62%; `O=C1CN(S(=O)(=O)c2ccc(Cl)cc2)c2ccccc2N1` [I-829, 4-((4-chlorophenyl)sulfonyl)-3,4-dihydroquinoxalin-2(1H)-one]: 63%. Next, `O=C(Nc1cccc(Br)c1)c1ccc(NS(=O)(=O)c2cccc([N+](=O)[O-])c2)cc1` [I-940, N-(3-bromophenyl)-4-((3-nitrophenyl)sulfonamido)benzamide]: 50%; `O=C(Nc1cccc(S(=O)(=O)N2CCOCC2)c1)c1cccc(S(=O)(=O)N2CCc3ccccc32)c1` [I-527, 3-(indolin-1-ylsulfonyl)-N-(3-(morpholinosulfonyl)phenyl)benzamide]: 55%; `O=C(Nc1cccc(S(=O)(=O)Nc2ccc(I)cc2)c1)c1ccccn1` [I-723, N-(3-(N-(4-iodophenyl)sulfamoyl)phenyl)picolinamide]: 57%. As to `O=C(Nc1cccc([N+](=O)[O-])c1)c1ccc(Br)c(S(=O)(=O)Nc2ccccc2)c1` [I-34, 4-bromo-N-(3-nitrophenyl)-3-(N-phenylsulfamoyl)benzamide], the “% Inhibition of Apyrase” value is 18%.

`O=C(c1cccc(S(=O)(=O)Nc2ccc(Br)cc2)c1)N1CCN(c2cccc(Cl)c2)CC1` [I-247, N-(4-bromophenyl)-3-(4-(3-chlorophenyl)piperazine-1-carbonyl)benzenesulfonamide]: the “% Inhibition of Apyrase” value came out at 65%.

On to `Cc1ccc(S(=O)(=O)Nc2ccc(C(=O)Nc3ccc(F)cc3)cc2)cc1C` [I-927, 4-((3,4-dimethylphenyl)sulfonamido)-N-(4-fluorophenyl)benzamide], for which the “% Inhibition of Apyrase” value is recorded as 56%. `O=C(Nc1ccc2c(c1)OCCO2)c1ccc(Cl)c(S(=O)(=O)N2CCc3ccccc32)c1` [I-524, 4-chloro-N-(2,3-dihydrobenzo[b][1,4]dioxin-6-yl)-3-(indolin-1-ylsulfonyl)benzamide]: the “% Inhibition of Apyrase” value came to 55%.

As to `Cc1ccccc1NS(=O)(=O)c1ccc(C(=O)Nc2ccccc2C(=O)NC2CC2)cc1` [I-893, N-cyclopropyl-2-(4-(N-(o-tolyl)sulfamoyl)benzamido)benzamide], the “% Inhibition of Apyrase” value is listed as 20%. For the compound `O=C(c1cccc(S(=O)(=O)N2CCc3ccccc32)c1)N1CCc2ccccc21` [I-567, indolin-1-yl(3-(indolin-1-ylsulfonyl)phenyl)methanone], the “% Inhibition of Apyrase” value is given as 51%. As for `O=C(Nc1ccccc1NS(=O)(=O)c1ccc2oc(=O)ccc2c1)c1ccc(Cl)cc1` [I-841, 4-chloro-N-(2-((2-oxo-2H-chromene)-6-sulfonamido)phenyl)benzamide], the “% Inhibition of Apyrase” value worked out at 8%. In the case of `O=C1CCc2cc(S(=O)(=O)Nc3cccc(C(=O)Nc4cccc(C(F)(F)F)c4)c3)ccc2N1` [I-218, 3-((2-oxo-1,2,3,4-tetrahydroquinoline)-6-sulfonamido)-N-(3-(trifluoromethyl)phenyl)benzamide], the “% Inhibition of Apyrase” value is reported as 62%. For `CN(c1ccccc1)S(=O)(=O)c1cccc(NC(=O)c2cccs2)c1` [I-710, N-(3-(N-methyl-N-phenylsulfamoyl)phenyl)thiophene-2-carboxamide], the “% Inhibition of Apyrase” value is given as 60%. Take `COc1ccc(S(=O)(=O)N2CCc3ccccc32)cc1C(=O)Nc1cccc(Br)c1` [I-525, N-(3-bromophenyl)-5-(indolin-1-ylsulfonyl)-2-methoxybenzamide]: the “% Inhibition of Apyrase” value turned out to be 55%. Next, `Cc1ccc(NC(=O)c2ccccc2NS(=O)(=O)c2cccc(C(F)(F)F)c2)cc1` [I-231, N-(p-tolyl)-2-((3-(trifluoromethyl)phenyl)sulfonamido)benzamide]: 58%. `O=C(Nc1ccccc1Cl)c1cccc(S(=O)(=O)Nc2ccc(Cl)cc2)c1` [I-177, N-(2-chlorophenyl)-3-(N-(4-chlorophenyl)sulfamoyl)benzamide]: the “% Inhibition of Apyrase” value amounted to 69%. For `NC(=O)C1CCCN(C(=O)c2cccc(S(=O)(=O)Nc3ccc(Br)cc3)c2)C1` (centres unmarked) [I-282, 1-(3-(N-(4-bromophenyl)sulfamoyl)benzoyl)piperidine-3-carboxamide], the “% Inhibition of Apyrase” value was 34%. To `O=C(Nc1cccc(S(=O)(=O)Nc2ccc(Br)cc2)c1)c1ccc2c(c1)OCO2` [I-232, N-(3-(N-(4-bromophenyl)sulfamoyl)phenyl)benzo[d][1,3] dioxole-5-carboxamide] belongs 65%.

With `N#Cc1cccc(NC(=O)c2ccc(NS(=O)(=O)c3ccc(F)c(F)c3)cc2)c1` [I-932, N-(3-cyanophenyl)-4-((3,4-difluorophenyl)sulfonamido)benzamide], the “% Inhibition of Apyrase” value turned out to be 55%. Consider `Cc1ccc(NC(=O)c2cccc(NS(=O)(=O)c3ccc(Br)cc3)c2)nc1` [I-646, 3-((4-bromophenyl)sulfonamido)-N-(5-methylpyridin-2-yl)benzamide], for which the “% Inhibition of Apyrase” value worked out at 54%. Turning to `Cc1cnc(C(=O)Nc2cccc(S(=O)(=O)N(C)c3ccccc3)c2)cn1` [I-767, 5-methyl-N-(3-(N-methyl-N-phenylsulfamoyl)phenyl)pyrazine-2-carboxamide], the “% Inhibition of Apyrase” value is reported as 12%. In the case of `COc1ccccc1NS(=O)(=O)c1cccc(NC(=O)c2cccnc2OC)c1` [I-770, 2-methoxy-N-(3-(N-(2-methoxyphenyl)sulfamoyl)phenyl) nicotinamide], the “% Inhibition of Apyrase” value is 6%. Next, `Cc1n[nH]c(C)c1CCC(=O)Nc1cccc(NC(=O)c2cccc(S(=O)(=O)Nc3ccc(Br)cc3)c2)c1` [I-1009, 3-(N-(4-bromophenyl)sulfamoyl)-N-(3-(3-(3,5-dimethyl-1H-pyrazol-4-yl)propanamido)phenyl)benzamide]: 26%; `O=C(Nc1cnccn1)c1cccc(NS(=O)(=O)c2c(F)cccc2F)c1` [I-659, 3-((2,6-difluorophenyl)sulfonamido)-N-(pyrazin-2-yl)benzamide]: 31%.

For `O=C(Nc1ccc(S(=O)(=O)Nc2ccccc2Cl)cc1)c1ccc(Cl)c(Cl)c1` [I-982, 3,4-dichloro-N-(4-(N-(2-chlorophenyl)sulfamoyl)phenyl)benzamide], the “% Inhibition of Apyrase” value was 57%.

As to `O=C(Nc1ccc(S(=O)(=O)Nc2ccccc2Cl)cc1)c1ccc2c(c1)OCCO2` [I-994, N-(4-(N-(2-chlorophenyl)sulfamoyl)phenyl)-2,3-dihydrobenzo[b][1,4]dioxine-6-carboxamide], the “% Inhibition of Apyrase” value was determined as 47%.
